Data from ChEMBL document CHEMBL1201862, “PubChem BioAssay data set” (2004).
Active and inactive are the calls of the source.

Experiments:
[1] = blockers of HIV-1 envelope-mediated cell-cell fusion – cherry-pick, dose response (AID 652057); type: functional, cell-based
[2] = blockers of HIV-1 ZM109 envelope-driven cell-cell fusion – HeLa effector, CEM target cells, luciferase, cherry-pick, dose response (AID 652058); type: functional, cell-based;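 further: luciferase signal from HIV-1 Env mediated cell-cell fusion of effector and target cells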
[3] = off-target signal loss in HeLa-CEM21 co-culture – HeLa F-luc CTL cells, cherry-picked, counter-screen for HIV-1 Env fusion inhibitor project, dose response (AID 652040); type: functional, cell-based;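 further: potency for signal decrease marking cytotoxic or nonspecific inhibition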
[4] = HIV-1 AD8 envelope cell-cell fusion blockers – cherry-pick, dose response (AID 652062); type: functional, cell-based;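 further: luciferase signal from cell-cell fusion driven by HIV-1 clade B AD8 Env; potency is for inhibitors of fusion seen as a drop in luminescence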
[5] = Luminescence Cell-Based Dose Retest to Confirm Inhibitors of Cancer Stem Cells. [Related pubchem assays (depositor defined):AID2717, AID2721]; type: functional; conditions: Homo sapiens
[6] = reduction of Shn3 3'UTR-driven luciferase in osteoblasts – cell-based, Clone20 osteoblasts, firefly luciferase, cherry-picked, dose response (AID 624132); type: functional;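 further: firefly luciferase luminescence from reporter carrying the Shn3 3'UTR in osteoblasts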
[7] = non-specific 3'UTR reporter inhibition in Clone20-Shn3RL – cell-based, Renilla luciferase, cherry-picked, counter-screen for Shn3 inhibitor project, dose response (AID 624133); type: functional
[8] = loss of viability in HepG2 cells – cell-based, CellTiter-Glo, cherry-picked, cytotoxicity control for Shn3 inhibitor project, dose response (AID 624134); type: functional
[9] = microbe, parasite or virus in culture; type: functional; conditions: Mycobacterium tuberculosis
[10] = OVCAR-3 cell viability loss – plate reader, dry powder samples, PAX8 inhibitor project, dose response (AID 743044); type: functional, cell-based
Paired box protein Pax-8 = Paired box protein Pax-8 (Homo sapiens, UniProt Q06710); experiment: PAX8 transcriptional activity inhibition in RMG-I – RMG-I cells, luciferase, cherry-pick, dose response (AID 687027); type: functional, cell-based;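 further: luciferase reporter driven by Pax8 target thyroperoxidase promoter measured by SteadyGlo luminescence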
Paired box protein Pax-8, sequence (Q06710 whole entry): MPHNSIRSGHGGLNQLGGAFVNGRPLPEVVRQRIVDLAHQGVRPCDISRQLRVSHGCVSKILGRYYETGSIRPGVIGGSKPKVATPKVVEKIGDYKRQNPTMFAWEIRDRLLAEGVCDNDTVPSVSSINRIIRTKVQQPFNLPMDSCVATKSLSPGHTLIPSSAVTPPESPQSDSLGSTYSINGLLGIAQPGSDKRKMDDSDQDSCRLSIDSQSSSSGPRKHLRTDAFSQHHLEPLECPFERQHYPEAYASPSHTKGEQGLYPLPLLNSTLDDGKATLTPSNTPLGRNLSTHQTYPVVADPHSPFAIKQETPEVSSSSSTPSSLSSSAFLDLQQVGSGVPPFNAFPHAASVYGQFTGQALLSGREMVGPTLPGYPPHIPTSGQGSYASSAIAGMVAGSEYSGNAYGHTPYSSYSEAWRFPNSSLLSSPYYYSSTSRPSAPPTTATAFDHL

[11] = A Cell Based Secondary Assay To Explore Cytotoxicity of Compounds that Sensitize Mycobacterium Tuberculosis to Beta-Lactam Antibiotics.; type: functional
[12] = target: T1, Sentrin-specific protease 8 (Homo sapiens, UniProt Q96LD8); type: functional
T1 sequence (Q96LD8 whole entry): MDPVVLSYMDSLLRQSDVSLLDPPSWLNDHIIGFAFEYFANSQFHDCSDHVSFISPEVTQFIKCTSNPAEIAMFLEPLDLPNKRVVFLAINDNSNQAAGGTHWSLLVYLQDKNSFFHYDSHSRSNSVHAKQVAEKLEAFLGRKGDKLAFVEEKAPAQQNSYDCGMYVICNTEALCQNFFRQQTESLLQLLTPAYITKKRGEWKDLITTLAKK

[13] = target: T2, Sentrin-specific protease 7 (Homo sapiens, UniProt Q9BQF6); type: functional;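 further: Luminescence-based dose-response confirmation of ultra-high-throughput screening hits, measuring inhibition of SENP7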
T2 sequence (Q9BQF6 whole entry): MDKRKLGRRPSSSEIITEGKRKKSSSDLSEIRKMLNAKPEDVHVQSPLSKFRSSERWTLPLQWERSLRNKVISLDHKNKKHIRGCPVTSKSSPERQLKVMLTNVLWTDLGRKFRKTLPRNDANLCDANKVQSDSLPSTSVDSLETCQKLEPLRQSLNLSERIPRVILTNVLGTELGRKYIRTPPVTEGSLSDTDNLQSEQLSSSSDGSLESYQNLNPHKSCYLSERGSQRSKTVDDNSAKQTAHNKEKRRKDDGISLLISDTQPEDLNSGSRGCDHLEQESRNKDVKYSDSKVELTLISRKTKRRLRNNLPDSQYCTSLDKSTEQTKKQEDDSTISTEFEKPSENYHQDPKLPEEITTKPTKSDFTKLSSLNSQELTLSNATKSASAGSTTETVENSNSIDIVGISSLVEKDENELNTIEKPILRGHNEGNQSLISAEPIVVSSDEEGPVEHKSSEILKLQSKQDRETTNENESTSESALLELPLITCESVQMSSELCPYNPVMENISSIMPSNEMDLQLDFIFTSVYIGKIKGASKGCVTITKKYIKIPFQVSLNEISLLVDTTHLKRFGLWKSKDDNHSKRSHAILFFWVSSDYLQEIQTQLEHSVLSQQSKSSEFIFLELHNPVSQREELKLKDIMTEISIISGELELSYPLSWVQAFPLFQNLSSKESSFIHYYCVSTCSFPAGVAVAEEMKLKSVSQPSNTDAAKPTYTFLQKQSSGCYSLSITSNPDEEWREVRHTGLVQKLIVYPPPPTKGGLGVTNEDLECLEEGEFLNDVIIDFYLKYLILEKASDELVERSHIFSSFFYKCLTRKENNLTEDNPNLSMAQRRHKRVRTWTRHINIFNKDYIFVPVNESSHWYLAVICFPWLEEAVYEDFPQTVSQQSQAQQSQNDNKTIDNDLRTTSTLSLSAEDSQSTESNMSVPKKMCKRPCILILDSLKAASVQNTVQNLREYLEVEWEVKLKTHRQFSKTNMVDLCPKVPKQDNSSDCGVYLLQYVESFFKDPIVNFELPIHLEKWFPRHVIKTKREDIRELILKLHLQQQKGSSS

[14] = target: T3, Sentrin-specific protease 6 (Homo sapiens, UniProt Q9GZR1); type: functional;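 further: Luminescence-based dose-response confirmatory assay of SENP6 inhibition, following up an ultra-high-throughput screen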
T3 sequence (Q9GZR1 whole entry): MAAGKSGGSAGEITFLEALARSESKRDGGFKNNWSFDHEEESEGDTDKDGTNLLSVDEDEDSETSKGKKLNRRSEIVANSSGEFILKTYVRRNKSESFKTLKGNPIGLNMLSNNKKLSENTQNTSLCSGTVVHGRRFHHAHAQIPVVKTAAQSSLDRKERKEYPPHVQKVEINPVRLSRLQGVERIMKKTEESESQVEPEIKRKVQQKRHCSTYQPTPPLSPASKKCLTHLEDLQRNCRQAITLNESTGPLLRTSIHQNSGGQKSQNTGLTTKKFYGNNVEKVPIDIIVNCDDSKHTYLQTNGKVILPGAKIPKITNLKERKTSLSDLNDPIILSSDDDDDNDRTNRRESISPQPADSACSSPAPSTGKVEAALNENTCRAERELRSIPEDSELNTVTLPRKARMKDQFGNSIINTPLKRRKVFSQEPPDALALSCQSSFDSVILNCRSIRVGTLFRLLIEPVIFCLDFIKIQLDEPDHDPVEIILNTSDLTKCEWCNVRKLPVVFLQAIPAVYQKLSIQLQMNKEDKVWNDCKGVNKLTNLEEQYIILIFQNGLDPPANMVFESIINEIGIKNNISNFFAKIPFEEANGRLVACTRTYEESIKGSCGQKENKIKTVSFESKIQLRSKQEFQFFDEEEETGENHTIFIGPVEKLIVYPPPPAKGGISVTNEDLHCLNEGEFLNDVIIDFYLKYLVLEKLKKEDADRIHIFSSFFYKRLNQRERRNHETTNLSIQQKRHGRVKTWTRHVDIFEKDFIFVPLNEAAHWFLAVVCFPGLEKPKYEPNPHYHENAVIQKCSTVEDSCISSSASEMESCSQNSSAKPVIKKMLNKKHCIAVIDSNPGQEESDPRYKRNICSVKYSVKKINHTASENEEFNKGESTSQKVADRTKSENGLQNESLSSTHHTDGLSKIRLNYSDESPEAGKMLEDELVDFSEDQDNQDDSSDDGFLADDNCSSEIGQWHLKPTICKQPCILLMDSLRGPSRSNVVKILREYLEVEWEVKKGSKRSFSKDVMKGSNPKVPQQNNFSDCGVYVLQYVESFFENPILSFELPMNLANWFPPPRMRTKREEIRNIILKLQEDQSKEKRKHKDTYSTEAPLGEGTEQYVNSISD

Caspase-3 = target: T4, Caspase-3 (Homo sapiens, UniProt P42574); type: functional;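 further: Dose-response selectivity test against caspase-3 for candidate inhibitors of sentrin-specific proteases (SENPs)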
T4 sequence (P42574 whole entry): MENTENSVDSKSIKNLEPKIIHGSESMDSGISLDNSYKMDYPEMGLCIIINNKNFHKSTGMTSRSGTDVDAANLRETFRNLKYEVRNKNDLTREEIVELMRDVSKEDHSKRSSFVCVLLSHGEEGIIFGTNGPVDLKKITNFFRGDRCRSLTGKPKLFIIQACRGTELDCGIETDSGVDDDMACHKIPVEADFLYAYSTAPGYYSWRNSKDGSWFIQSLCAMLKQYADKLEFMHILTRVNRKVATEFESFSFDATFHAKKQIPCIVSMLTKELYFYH

[15] = target: FAD-linked sulfhydryl oxidase ALR (Homo sapiens, UniProt P55789); experiment: ALR-catalysed DTT oxidation blockers – biochemical, H2O2 detection, luminescence, cherry-pick, dose response (AID 493248)
FAD-linked sulfhydryl oxidase ALR, sequence (P55789 whole entry): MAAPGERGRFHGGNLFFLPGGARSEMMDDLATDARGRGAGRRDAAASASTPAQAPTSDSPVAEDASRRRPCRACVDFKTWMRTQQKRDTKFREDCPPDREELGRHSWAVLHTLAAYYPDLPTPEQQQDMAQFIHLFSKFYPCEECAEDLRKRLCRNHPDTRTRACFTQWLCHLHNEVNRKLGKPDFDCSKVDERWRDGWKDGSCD

[16] = target: T1, Sentrin-specific protease 8; type: functional; remark: listed apart in the source
[17] = target: T1, Sentrin-specific protease 8; type: functional; remark: listed apart in the source
[18] = OVCAR8 cell viability loss – plate reader, dry powder samples, PAX8 project, dose response (AID 743197); type: functional, cell-based; conditions: OVCAR-8
[19] = viability of HCT116 lacking mutant beta-catenin – cell-based, human colon tumor, dose response (AID 1045); type: functional;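 further: HCT116 colon tumor cells with beta catenin knocked out; cells exposed to compound for 60 hours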
[20] = viability of PTEN-deleted HCT116 cells – cell-based, HCT116 PTEN knockout, dose response (AID 1047); type: functional;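 further: HCT116 colon tumor cells with PTEN knocked out; cells exposed to compound for 60 hours before readout; potency for loss of cell viability measured by luminescence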

COc1ccc(C(C(=O)NC(C)(C)C)N(CCC(C)C)C(=O)CCC(=O)Nc2cc(C)on2)cc1 (centres undefined)
AC50 [1]: 7.02 µM (active) | AC50 [2]: 18.1 µM (active) | AC50 [3]: 16.6 µM (active) | AC50 [4]: 22.8 µM (active)

CCOc1cc2c(cc1OCC)-n1cccc1C(c1ccc(C(C)C)cc1)NC2 (centres undefined)
AC50 [5]: 11.4 µM (active) | AC50 [6]: 7.22 µM (active) | AC50 [7]: 4.99 µM (active) | AC50 [8]: 67.7 µM (active) | CC50 [9]: > 40 µM (active)

C[C@H]1CN([C@@H](C)CO)C(=O)c2c(c3ccccc3n2C)-c2ccccc2CO[C@@H]1CN(C)S(=O)(=O)c1ccsc1
AC50 [10]: 51.1 µM (active) | AC50 (Paired box protein Pax-8): 3.6 µM (active)

COc1ccc(/C=C2/CCCC(C(=O)C(F)(F)F)=C2O)cc1OC
CC50 [11]: > 40 µM (active)

COC(=O)[C@@]1(C)[C@H]2C(=O)N(Cc3ccccc3)C(=O)[C@H]2[C@H]2CN=C(SCc3ccc(C#N)cc3)N21
AC50 [1]: 0.566 µM (active) | AC50 [2]: 0.785 µM (active) | AC50 [3]: 1.09 µM (active) | AC50 [4]: 0.609 µM (active)

CCOC(=O)C1(Cc2ccc(Cl)cc2)CCN(C(C)Cc2ccc(O)c(OC)c2)CC1 (centres undefined)
AC50 [6]: 1.33 µM (active) | AC50 [7]: 2.65 µM (active) | AC50 [8]: 17.6 µM (active)

COC(=O)c1ccc(-c2ccc(F)cc2)nc1C
IC50 [12]: 64.9 µM (active) | IC50 [13]: 8.25 µM (active) | IC50 [14]: 31.9 µM (active) | IC50 (Caspase-3): 13.2 µM (active)

CC(C)(C)NCCCOc1ccc(Cl)cc1C(C)(C)C
CC50 [11]: 39.3 µM (active)

CN(C)c1ccc(NC(=O)Oc2ccccc2)cc1
AC50 [15]: 1.88 µM (active) | IC50 [16]: > 100 µM (inactive) | IC50 [17]: 78.1 µM (inactive)

O=C(Nc1ccc(F)cc1)N1CC(=O)N2[C@@H](CO)[C@@H](c3ccc(C#Cc4ccc(F)cc4)cc3)[C@@H]2C1
AC50 [10]: 16.2 µM (active) | AC50 [18]: > 70 µM (inactive) | AC50 (Paired box protein Pax-8): 10.4 µM (active)

CN(c1ccccc1)S(=O)(=O)c1ccc(Cl)c(C(=O)Nc2nc3ccccc3[nH]2)c1
AC50 [1]: 3.18 µM (active) | AC50 [2]: 1.6 µM (active) | AC50 [3]: 5.75 µM (active) | AC50 [4]: 5.66 µM (active)

COc1ccccc1N1CCN(S(=O)(=O)c2ccc3[nH]c(-c4ccccc4)nc3c2)CC1
CC50 [11]: > 40 µM (active)

CCOc1ccccc1Nc1cc(C)nc2ccccc12
AC50 [6]: 8.14 µM (active) | AC50 [7]: 5.31 µM (active) | AC50 [8]: 48.6 µM (active)

Cc1ccc(C(=O)c2sc3c(c2N)c(=O)[nH]c(=O)n3CCc2ccccc2)cc1
EC50 [19]: 9.5 µM (active) | EC50 [20]: 10.7 µM (active) | CC50 [11]: 25.1 µM (active)

O=C(Nc1ccc(S(=O)(=O)N2CCCCC2)cc1)C1CCCN(C(=O)c2ccc(Cl)cc2)C1 (centres undefined)
CC50 [11]: > 40 µM (active)

C[C@H](CO)N1C[C@H](C)[C@H](CN(C)C(=O)c2ccncc2)OCc2ccccc2-c2c(n(C)c3ccccc23)C1=O
AC50 [1]: 9.94 µM (active) | AC50 [2]: 4.23 µM (active) | AC50 [4]: 33.1 µM (active)

COc1cccc(C(=O)NC(=S)Nc2ccc(N(C)C)cc2)c1
IC50 [12]: 21 µM (active) | IC50 [13]: 6.14 µM (active) | IC50 [14]: 16.1 µM (active) | IC50 (Caspase-3): 10.7 µM (active)
